Results on 2 compounds are retold here after ChEMBL document CHEMBL1155100, “Design and synthesis of novel 3-hydroxy-cyclobut-3-ene-1,2-dione derivatives as thyroid hormone receptor beta (TR-beta) selective ligands” (Bioorg Med Chem Lett, 2008).

In assay [1] the target is T1, Thyroid hormone receptor beta (Homo sapiens, UniProt P10828).
T1 sequence (P10828 whole entry): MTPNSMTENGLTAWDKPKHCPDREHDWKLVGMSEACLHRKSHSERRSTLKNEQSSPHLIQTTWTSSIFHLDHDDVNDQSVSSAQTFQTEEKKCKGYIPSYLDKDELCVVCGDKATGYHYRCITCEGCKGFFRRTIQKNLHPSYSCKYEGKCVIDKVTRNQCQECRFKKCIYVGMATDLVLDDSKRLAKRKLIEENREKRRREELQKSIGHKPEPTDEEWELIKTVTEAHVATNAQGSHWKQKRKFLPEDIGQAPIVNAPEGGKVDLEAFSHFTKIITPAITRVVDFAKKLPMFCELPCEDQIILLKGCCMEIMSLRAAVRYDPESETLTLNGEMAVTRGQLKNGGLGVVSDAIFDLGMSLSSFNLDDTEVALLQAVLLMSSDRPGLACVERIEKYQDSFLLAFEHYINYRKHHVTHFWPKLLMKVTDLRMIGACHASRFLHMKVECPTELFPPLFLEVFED

Assay [2] deals with T2, Thyroid hormone receptor alpha (Homo sapiens, UniProt P10827).
T2 sequence (P10827 whole entry): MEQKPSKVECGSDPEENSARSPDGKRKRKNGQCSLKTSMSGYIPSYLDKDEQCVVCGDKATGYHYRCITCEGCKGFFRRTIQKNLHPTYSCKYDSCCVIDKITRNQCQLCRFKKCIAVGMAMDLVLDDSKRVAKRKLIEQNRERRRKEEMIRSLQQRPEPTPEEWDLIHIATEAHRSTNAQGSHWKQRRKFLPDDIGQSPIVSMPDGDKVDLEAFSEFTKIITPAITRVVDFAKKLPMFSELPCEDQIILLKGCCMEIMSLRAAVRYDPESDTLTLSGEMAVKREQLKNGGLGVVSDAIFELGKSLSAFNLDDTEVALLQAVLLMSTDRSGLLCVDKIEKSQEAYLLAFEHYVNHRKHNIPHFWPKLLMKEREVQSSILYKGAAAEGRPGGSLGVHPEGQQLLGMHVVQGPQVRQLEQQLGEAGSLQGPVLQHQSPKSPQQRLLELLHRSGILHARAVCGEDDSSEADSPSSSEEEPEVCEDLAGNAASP
The assay is described as follows: Agonist activity at human thyroid hormone receptor alpha expressed in CV1 cells by TRE-luciferase assay. The class given is functional, cell-based, CV-1.

In general, EC50 refers to the midpoint of the concentration-response curve. In the case of `CC(C)c1cc(Oc2c(Cl)cc(Nc3c(O)c(=O)c3=O)cc2Cl)ccc1O`, the EC50 in assay [1] is 70 nM; in assay [2], 222 nM.

Take `CC(C)(C)c1cc(Oc2c(Cl)cc(Nc3c(O)c(=O)c3=O)cc2Cl)ccc1O`: the EC50 in assay [1] stood at 317 nM; in assay [2] it was 1060 nM.
